{"source": "patent US12636292B2", "about": "“Method and composition for reversing and/or inhibiting atherosclerosis” (ARJIL BIOTECH HOLDING COMPANY LIMITED, priority 2019, dated 2026)", "key": {"[1]": {"assay": "DPPH free radical scavenging assay", "type": "biochemical", "method": "The antioxidant capacity of antcin K was examined by 1,1-diphenyl-2-trinitrophenylhydrazyl (DPPH) assay in this study. We formulated DPPH (D9132, Sigma-Aldrich Co., St. Louis, MO, USA) at a concentration of 1.5 mM per 1 mL and added 9 mL of methanol (322415, Sigma-Aldrich Co., St. Louis, MO, USA) to the mixed solution. The 100 μL of DPPH and 100 μL of 10, 20, and 50 μg/mL of test samples were taken, shaken, and mixed evenly, then placed at room temperature for 30 min in the dark. After that, the absorbance was measured at 517 nm using an ultraviolet/visible light spectrometer (Microplate Spectrophotometer, uQuant, Biotek Instruments, Inc., Winooski, VT, USA).\nDifferent concentrations of test samples were prepared and compared with the standard L-Ascorbic acid (L-AA) (A5960, Sigma-Aldrich Co., St. Louis, MO, USA). Based on the reduction percentage of the absorbance value observed in the control group, the antioxidant capacity of each test sample to scavenge DPPH free radicals can be judged. After that, the test sample with the most robust ability to scavenge DPPH free radicals was selected and repeated three times. The formula is as follows: DPPH free radical scavenging rate (%)=(1−(absorption value of experimental group/absorption value of control group))×100."}, "[2]": {"system": "SVEC4-10 vascular endothelial cells", "assay": "MTT cell viability assay", "type": "cell-based", "conditions": "for cell viability of vascular endothelial cells: sham = 100%", "method": "(§1) Vascular endothelial cells (SVEC4-10) were purchased from the Cell Bank of Hsin-Chu Food Industry Development Institute (FIRDI, Cat no: BCRC-60220). SVEC4-10 cells were cultured in high-glucose DMEM (Dulbecco's Modified Eagle Medium) (Gibco BRL, Grand Island, NY, USA) and supplemented with 10% Fetal Bovine Serum (FBS) (HyClone, Logan, UT, USA), 1.5 g/L sodium bicarbonate, 0.11 g/L sodium pyruvate, 4 mM L-glutamine, 100 U/mL penicillin, and 100 μg/mL streptomycin (Gibco BRL, Grand Island, NY, USA).\n(§2) These cells were grown in a culture medium and maintained in a humidified incubator at 37° C. and 5% CO2. Vascular endothelial cells were digested with 0.25% trypsin (Gibco BRL, Grand Island, NY, USA) for approximately 1 min until most cells detached. All cell densities were adjusted to 1×10^5 cells per well for each 24-well culture plate. After vascular endothelial cells were cultured for 24 h, in the hyperlipidemia group, 0.75 mM palm acid oil (CAS 57-10-3-800508; Sigma-Aldrich Co., St. Louis, MO, USA) (Oh et al., 2018) was added, and 10, 20, and 50 μg/mL of antcin K in each experiment was individually added.\nWe used a 3-(4,5-Dimethylthiazol-2-yl)-2,5-diphenyltetrazolium bromide (MTT) assay to examine the cell viability of antcin K in this study. A total of 1×10^5 cells/mL SVEC4-10 cells were added to a 24-well plate, and 0.5 mM palm acid oil (Sigma-Aldrich Co., St. Louis, MO, USA) was partially added, and 10, 20, and 50 μg/mL of test samples were added to SVEC4-10 cells, followed by culturing within 24 h. After adding 0.5 mg/mL of MTT solution (M5655, Sigma-Aldrich Co., St. Louis, MO, USA) and culturing for 2 h, the supernatant was removed, and 100 μL/well of DMSO organic solvent was added, followed by a 5 min shaking and then absorbance measurement at 570 nm."}, "TNF-α [3]": {"system": "TNF-α", "assay": "ELISA of TNF-α in palm acid oil-treated vascular endothelial cells", "type": "cell-based, mouse", "method": "as §1, §2\n(§3) We analyzed the content of inflammatory cytokines by ELISA. The supernatant of SVEC4-10 cells with palm acid oil hyperlipidemia treatment was collected after 24 h of culture and added to a 96-well micro-well plate (Thermo Scientific Nunc®, Nunc AS, Copenhagen, Denmark). An amount of 100 μL/well of carbonate buffer containing antibodies of 32 ng/mL purified rat anti-mouse TNF-α (88-7324; Invitrogen, Carlsbad, CA, USA) or 32 ng/mL purified rat anti-mouse IL-1_(88-7013; Invitrogen, Carlsbad, CA, USA) was added to each well and kept at 4° C. overnight. After that, we washed three times with 0.05% phosphate-buffered saline with Tween 20 (PBST) buffer to remove unbound monoclonal antibodies. Then, we added 200 μL/well of blocking solution to reduce nonspecific binding. […] The reaction was terminated with 2% H2SO4, and the absorbance at 450-570 nm was measured."}, "IL-1β [4]": {"system": "IL-1β", "assay": "ELISA of IL-1β in palm acid oil-treated vascular endothelial cells", "type": "cell-based, mouse", "method": "as §1, §2, §3"}, "VCAM-1": {"system": "VCAM-1", "assay": "Immunofluorescence staining of VCAM-1 in vascular endothelial cells", "type": "cell-based, mouse", "conditions": "20 μg/mL with 0.75 mM palm acid oil; p<0.01"}, "TNF-α [5]": {"system": "TNF-α", "assay": "ELISA of TNF-α in RAW264.7 macrophages", "type": "cell-based, mouse", "conditions": "20 μg/mL with 0.75 mM palm acid oil (856.9 without)"}, "IL-1β [6]": {"system": "IL-1β", "assay": "ELISA of IL-1β in RAW264.7 macrophages", "type": "cell-based, mouse", "conditions": "20 μg/mL with 0.75 mM palm acid oil (272.3 without)"}, "[7]": {"system": "vascular endothelial cells", "assay": "Cellular lipid deposition assay (oil red O staining)", "type": "cell-based", "conditions": "different concentrations of antcin K", "method": "We used oil red O staining which was clearly described in a previous report (Luo et al., 2021) to examine cellular lipid deposition. RAW264.7 macrophages were fixed with 2% paraformaldehyde for 10-15 min at room temperature, washed three times with phosphate-buffered saline (PBS) and twice with ddH2O, and stained with 5% oil red O dye for 15 min at room temperature, then the supernatant was discarded. Vascular endothelial cells and RAW264.7 macrophages were infiltrated with 60% isopropanol, washed twice with ddH2O, and photographed with an optical microscope (Olympus BH2 system light microscope, Olympus Corporation, Tokyo, Japan)."}}, "data": [{"smiles": "C=C(CC[C@@H](C)[C@H]1CC[C@H]2C3=C(C(=O)C[C@]12C)[C@@]1(C)CC[C@H](O)[C@](C)(O)C1CC3O)C(C)C(=O)O", "note": "(some centres unmarked) [antcin K, 3a,4b,7b-tri-hydroxy4a-methylergosta-8,24(28)-dien-11-on-26-oic acid]", "values": [{"measurement": "free radicals scavenging efficiency (DPPH)", "setting": "[1]; 20 μg/mL", "result": 96.82, "unit": "%"}, {"measurement": "free radicals scavenging efficiency (DPPH)", "setting": "[1]; 50 μg/mL", "result": 98.81, "unit": "%"}, {"measurement": "cell viability of vascular endothelial cells", "setting": "[2]; 10 μg/mL with 0.75 mM palm acid oil", "result": 71.5, "unit": "%"}, {"measurement": "cell viability of vascular endothelial cells", "setting": "[2]; 20 μg/mL with 0.75 mM palm acid oil", "result": 84.6, "unit": "%"}, {"measurement": "cell viability of vascular endothelial cells", "setting": "[2]; 50 μg/mL with 0.75 mM palm acid oil", "result": 109.2, "unit": "%"}, {"measurement": "change of cell viability of vascular endothelial cells", "setting": "[2]; 10, 20 and 50 μg/mL without palm acid oil damage", "result": "not very obvious"}, {"measurement": "IC50", "setting": "[2]; Mus musculus, SVEC4-10, antcin K treatment 0-50 μg/mL, MTT", "result": "> 50", "unit": "µg/mL"}, {"measurement": "expression of TNF-α of vascular endothelial cells", "setting": "TNF-α [3]; 10 μg/mL with 0.75 mM palm acid oil (285.5 without)", "result": 178.8, "unit": "pg/mL"}, {"measurement": "expression of TNF-α of vascular endothelial cells", "setting": "TNF-α [3]; 20 μg/mL with 0.75 mM palm acid oil (285.5 without)", "result": 180.3, "unit": "pg/mL"}, {"measurement": "expression of TNF-α of vascular endothelial cells", "setting": "TNF-α [3]; 50 μg/mL with 0.75 mM palm acid oil (285.5 without)", "result": 181.0, "unit": "pg/mL"}, {"measurement": "expression of IL-1β of vascular endothelial cells", "setting": "IL-1β [4]; 10 μg/mL with 0.75 mM palm acid oil (86.6 without)", "result": 70.2, "unit": "pg/mL"}, {"measurement": "expression of IL-1β of vascular endothelial cells", "setting": "IL-1β [4]; 20 μg/mL with 0.75 mM palm acid oil (86.6 without)", "result": 69.3, "unit": "pg/mL"}, {"measurement": "expression of IL-1β of vascular endothelial cells", "setting": "IL-1β [4]; 50 μg/mL with 0.75 mM palm acid oil (86.6 without)", "result": 71.5, "unit": "pg/mL"}, {"measurement": "expression of VCAM-1 in palm acid oil-treated vascular endothelial cells", "setting": "VCAM-1", "result": "significantly decreased"}, {"measurement": "expression of TNF-α of RAW264.7 macrophages", "setting": "TNF-α [5]", "result": 690.7, "unit": "pg/mL"}, {"measurement": "expression of IL-1β of RAW264.7 macrophage cells", "setting": "IL-1β [6]", "result": 189.2, "unit": "pg/mL"}, {"measurement": "lipid deposition in palm acid oil-treated vascular endothelial cells", "setting": "[7]", "result": "decreased"}]}]}
